Laboratory results published in patent US6316500A, “Aliphatically unsaturated hydroxy benzoates and preservative compositions thereof” (ISP Investments Inc., priority 1999, dated 2001).

Columns and labels:
P. aeruginosa 9027 = assay: Activity test: preservative challenge test in emulsion, P. aeruginosa 9027; format: cell-based; settings: for number of colonies per milliliter, 28 days: reinoculated at 21 days
Protocol: (§1) The emulsion was prepared by separately mixing components in phase A and phase B at 75-80° C. for 15 minutes. The phases were then combined and mixed for another 10 minutes and cooled to 45° C. with stirring. Preservative was then added followed by citric acid to adjust pH to from abut 6.5 to 7.5. Stirring of the resulting mixture was continued until a temperature of 30° C. was reached. The activity tests were carried out using the following microorganisms: A. niger, B. cepacia, C. albicans, E. coli, P. aeruginosa and S. aureus. 50 g aliquots of the test emulsion containing various amounts of the preservative admixture as reported in Tables I-V were inoculated with approximately 10^7 -10^8 of the test organisms. The test samples then were stirred to disperse the challenge inoculum. The samples were incubated and assayed at 48 hours, 7, 14, 21 and 28 days. The assays were performed on 1 g, of the test sample by serially diluting 10^3 to 10^6 of the original concentration. The plating medium for bacteria was Letheen agar and for fungi it was low pH Mycophil agar with Tween 20. Each plated sample was incubated for 48 hours at 37° C. for bacteria, 5 days at 25° C. for mold and 3 days at 25° C. for fungi. After incubation, readings of the number of colonies per milliliter (cfu/ml) were made results were determined, as reported in associated Tables IA-VA. At 21 days the test product was reinoculated with half of the original inoculum.

A. niger 16404 = assay: Activity test: preservative challenge test in emulsion, A. niger 16404; format: cell-based; settings: for number of colonies per milliliter, 28 days: reinoculated at 21 days
Protocol: as §1

B. cepacia 25416 = assay: Activity test: preservative challenge test in emulsion, B. cepacia 25416; format: cell-based; settings: for number of colonies per milliliter, 28 days: reinoculated at 21 days
Protocol: as §1

E. coli 8739 = assay: Activity test: preservative challenge test in emulsion, E. coli 8739; format: cell-based; settings: for number of colonies per milliliter, 28 days: reinoculated at 21 days
Protocol: as §1

S. aureus 6538 = assay: Activity test: preservative challenge test in emulsion, S. aureus 6538; format: cell-based; settings: for number of colonies per milliliter, 28 days: reinoculated at 21 days
Protocol: as §1

C. albicans 10231 = assay: Activity test: preservative challenge test in emulsion, C. albicans 10231; format: cell-based; settings: for number of colonies per milliliter, 28 days: reinoculated at 21 days
Protocol: as §1

[1] = about 10 ppm, beer preservative; cited from earlier work

## C#CCOC(=O)c1ccc(O)cc1O [Propargyl 2,4-Dihydroxybenzoate]
P. aeruginosa 9027; 0.2% preservative in emulsion
  number of colonies per milliliter, 48 hr: < 10 cfu/ml
  number of colonies per milliliter, 7 days: < 10 cfu/ml
  number of colonies per milliliter, 14 days: < 10 cfu/ml
  number of colonies per milliliter, 21 days: < 10 cfu/ml
  number of colonies per milliliter, 28 days: < 10 cfu/ml
A. niger 16404; 0.2% preservative in emulsion
  number of colonies per milliliter, 48 hr: 3500 cfu/ml
  number of colonies per milliliter, 7 days: < 10 cfu/ml
  number of colonies per milliliter, 14 days: < 10 cfu/ml
  number of colonies per milliliter, 21 days: < 10 cfu/ml
  number of colonies per milliliter, 28 days: < 10 cfu/ml
B. cepacia 25416; 0.2% preservative in emulsion
  number of colonies per milliliter, 48 hr: < 10 cfu/ml
  number of colonies per milliliter, 7 days: < 10 cfu/ml
  number of colonies per milliliter, 14 days: < 10 cfu/ml
  number of colonies per milliliter, 21 days: < 10 cfu/ml
  number of colonies per milliliter, 28 days: < 10 cfu/ml
E. coli 8739; 0.2% preservative in emulsion
  number of colonies per milliliter, 48 hr: < 10 cfu/ml
  number of colonies per milliliter, 7 days: < 10 cfu/ml
  number of colonies per milliliter, 14 days: < 10 cfu/ml
  number of colonies per milliliter, 21 days: < 10 cfu/ml
  number of colonies per milliliter, 28 days: < 10 cfu/ml
S. aureus 6538; 0.2% preservative in emulsion
  number of colonies per milliliter, 48 hr: < 10 cfu/ml
  number of colonies per milliliter, 7 days: < 10 cfu/ml
  number of colonies per milliliter, 14 days: < 10 cfu/ml
  number of colonies per milliliter, 21 days: < 10 cfu/ml
  number of colonies per milliliter, 28 days: < 10 cfu/ml
C. albicans 10231; 0.2% preservative in emulsion
  number of colonies per milliliter, 48 hr: 540 cfu/ml
  number of colonies per milliliter, 7 days: < 10 cfu/ml
  number of colonies per milliliter, 14 days: < 10 cfu/ml
  number of colonies per milliliter, 21 days: < 10 cfu/ml
  number of colonies per milliliter, 28 days: < 10 cfu/ml

## C#CCOC(=O)c1ccc(O)c(O)c1 [Propargyl 3,4-Dihydroxybenzoate]
P. aeruginosa 9027; 0.5% preservative in emulsion
  number of colonies per milliliter, 48 hr: < 10 cfu/ml
  number of colonies per milliliter, 7 days: < 10 cfu/ml
  number of colonies per milliliter, 14 days: < 10 cfu/ml
  number of colonies per milliliter, 21 days: < 10 cfu/ml
  number of colonies per milliliter, 28 days: < 10 cfu/ml
A. niger 16404; 0.5% preservative in emulsion
  number of colonies per milliliter, 48 hr: < 10 cfu/ml
  number of colonies per milliliter, 7 days: < 10 cfu/ml
  number of colonies per milliliter, 14 days: < 10 cfu/ml
  number of colonies per milliliter, 21 days: < 10 cfu/ml
  number of colonies per milliliter, 28 days: < 10 cfu/ml
B. cepacia 25416; 0.5% preservative in emulsion
  number of colonies per milliliter, 48 hr: < 10 cfu/ml
  number of colonies per milliliter, 7 days: < 10 cfu/ml
  number of colonies per milliliter, 14 days: < 10 cfu/ml
  number of colonies per milliliter, 21 days: < 10 cfu/ml
  number of colonies per milliliter, 28 days: < 10 cfu/ml
E. coli 8739; 0.5% preservative in emulsion
  number of colonies per milliliter, 48 hr: < 10 cfu/ml
  number of colonies per milliliter, 7 days: < 10 cfu/ml
  number of colonies per milliliter, 14 days: < 10 cfu/ml
  number of colonies per milliliter, 21 days: < 10 cfu/ml
  number of colonies per milliliter, 28 days: < 10 cfu/ml
S. aureus 6538; 0.5% preservative in emulsion
  number of colonies per milliliter, 48 hr: < 10 cfu/ml
  number of colonies per milliliter, 7 days: < 10 cfu/ml
  number of colonies per milliliter, 14 days: < 10 cfu/ml
  number of colonies per milliliter, 21 days: < 10 cfu/ml
  number of colonies per milliliter, 28 days: < 10 cfu/ml
C. albicans 10231; 0.5% preservative in emulsion
  number of colonies per milliliter, 48 hr: < 10 cfu/ml
  number of colonies per milliliter, 7 days: < 10 cfu/ml
  number of colonies per milliliter, 14 days: < 10 cfu/ml
  number of colonies per milliliter, 21 days: < 10 cfu/ml
  number of colonies per milliliter, 28 days: < 10 cfu/ml

## C#CCOC(=O)c1ccc(O)c(Cl)c1 [Propargyl 3-Chloro-4-Hydroxybenzoate]
P. aeruginosa 9027; 0.5% preservative in emulsion
  number of colonies per milliliter, 48 hr: < 10 cfu/ml
  number of colonies per milliliter, 7 days: < 10 cfu/ml
  number of colonies per milliliter, 14 days: 80 cfu/ml
  number of colonies per milliliter, 21 days: < 10 cfu/ml
  number of colonies per milliliter, 28 days: < 10 cfu/ml
A. niger 16404; 0.5% preservative in emulsion
  number of colonies per milliliter, 48 hr: 10000 cfu/ml
  number of colonies per milliliter, 7 days: < 10 cfu/ml
  number of colonies per milliliter, 14 days: < 10 cfu/ml
  number of colonies per milliliter, 21 days: < 10 cfu/ml
  number of colonies per milliliter, 28 days: < 10 cfu/ml
B. cepacia 25416; 0.5% preservative in emulsion
  number of colonies per milliliter, 48 hr: > 10^6 cfu/ml
  number of colonies per milliliter, 7 days: < 10^6 cfu/ml
  number of colonies per milliliter, 14 days: < 10^6 cfu/ml
  number of colonies per milliliter, 21 days: < 10^6 cfu/ml
  number of colonies per milliliter, 28 days: < 10^6 cfu/ml
E. coli 8739; 0.5% preservative in emulsion
  number of colonies per milliliter, 48 hr: 30 cfu/ml
  number of colonies per milliliter, 7 days: < 10 cfu/ml
  number of colonies per milliliter, 14 days: < 10 cfu/ml
  number of colonies per milliliter, 21 days: < 10 cfu/ml
  number of colonies per milliliter, 28 days: < 10 cfu/ml
S. aureus 6538; 0.5% preservative in emulsion
  number of colonies per milliliter, 48 hr: 9600 cfu/ml
  number of colonies per milliliter, 7 days: < 10 cfu/ml
  number of colonies per milliliter, 14 days: < 10 cfu/ml
  number of colonies per milliliter, 21 days: < 10 cfu/ml
  number of colonies per milliliter, 28 days: < 10 cfu/ml
C. albicans 10231; 0.5% preservative in emulsion
  number of colonies per milliliter, 48 hr: 280000 cfu/ml
  number of colonies per milliliter, 7 days: 370 cfu/ml
  number of colonies per milliliter, 14 days: < 10 cfu/ml
  number of colonies per milliliter, 21 days: < 10 cfu/ml
  number of colonies per milliliter, 28 days: < 10 cfu/ml

## CCCCCCCOC(=O)c1ccc(O)cc1 [heptyl p-hydroxybenzoate]
[1]
  solubility in beer: limited solubility in beer so that the beer becomes turbid at about 0 °C
